Measurements taken from patent US10315976B2, “Organic compounds” (Givaudan SA, priority 2013, dated 2019).

Assays:
[1] = Chemical stability (thermal, alkaline and acidic media); type: physicochemical
[2] = findings of SCCS; cited from earlier work

## CC(=CCCC=O)CCCC(C)(C)O [(I), 5,9-dimethyl-9-hydroxy-decen-4-al]
[1]
  Stability in alkaline media: unstable in alkaline media
  Thermal stability: thermally unstable
[1]; above pH 10, ambient temperature
  Degradation in alkaline conditions: rapidly degraded
[1]; above pH 10 or below about pH 4, elevated temperatures, compared with ambient
  Degradation at elevated temperatures: degradation proceeds even more rapidly
[1]; below about pH 4, ambient temperature
  Degradation in acidic conditions: rapidly degraded

## CC(C)(O)CCCC1=CCC(C=O)CC1 (stereo not drawn) [cyclohexal, 4(4-hydroxy-4-methylpentyl) 3-cyclohexene carboxaldehyde]
[2]
  Allergenicity: allergenic concerns
